Assay results reported in patent US9062124B2, “GIP-based mixed agonists for treatment of metabolic disorders and obesity” (priority 2008, dated 2015).
*1 amine or outer side, *2 acyl side, *3 side chain or, on linkers, in order; H or OH if unused. Where a SMILES comes first, the peptide text is derived from it. Bridges are numbered along the chain shown (N, C = ends). Where no end group is shown, it is not given here. Side-chain parts run from the residue outwards. [ ]: non-standard residue; d: D form. The star is where a group is joined. PEG 40 kDa = PEG (40 kDa) covalently attached to Cys; γGlu = O=C(O)[C@H](CCC(=O)[*:2])N[*:1]; Palmitoyl = CCCCCCCCCCCCCCCC(=O)*; Myristoyl = CCCCCCCCCCCCCC(=O)*; Aib = CC(C)(N)C(=O)O

Assays:
GLP-1 receptor = biological target: T1, GLP-1 receptor (Homo sapiens, UniProt P43220); assay: cAMP synthesis functional assay (firefly luciferase reporter in HEK293 cells), GLP-1 receptor; assay type: cell-based; conditions: for % activity at the GLP-1 receptor: Table 5; for % Relative activity at the Receptor for GLP-1: Table 8
T1 construct: expressed in transfected cells; host or cells: HEK293

[1] = Body weight of mice after peptide injection; conditions: DIO mice; for body weight: Example 31, subcutaneous daily for 1 week; for body weight / total change in body weight (weight loss, decrease): 10 nmol/kg; for total change in body weight (weight loss, decrease): Example 41, subcutaneous daily for 7 days, Day 7
GIP receptor = biological target: T2, GIP receptor (Homo sapiens, UniProt P48546); assay: cAMP synthesis functional assay (firefly luciferase reporter in HEK293 cells), GIP receptor; assay type: cell-based; conditions: for % activity at the GIP receptor: Table 5; for % Relative activity at the Receptor for GIP: Table 8
T2 construct: expressed in transfected cells; host or cells: HEK293
T2 sequence (P48546 22-466): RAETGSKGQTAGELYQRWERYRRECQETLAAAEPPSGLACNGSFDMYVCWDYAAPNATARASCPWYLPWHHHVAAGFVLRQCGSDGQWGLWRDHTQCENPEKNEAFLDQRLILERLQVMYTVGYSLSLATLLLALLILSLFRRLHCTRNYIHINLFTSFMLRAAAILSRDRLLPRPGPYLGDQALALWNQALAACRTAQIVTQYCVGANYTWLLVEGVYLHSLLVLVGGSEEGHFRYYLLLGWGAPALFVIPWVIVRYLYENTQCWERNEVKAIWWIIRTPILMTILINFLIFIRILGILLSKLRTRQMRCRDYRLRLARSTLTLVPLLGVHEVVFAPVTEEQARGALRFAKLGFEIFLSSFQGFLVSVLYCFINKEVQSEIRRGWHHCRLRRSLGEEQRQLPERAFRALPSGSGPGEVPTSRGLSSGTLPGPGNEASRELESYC

glucagon receptor = biological target: T3, glucagon receptor (Homo sapiens, UniProt P47871); assay: cAMP synthesis functional assay (firefly luciferase reporter in HEK293 cells), glucagon receptor; assay type: cell-based; conditions: for % activity at the glucagon receptor: Table 5; for % Relative activity at the Receptor for Glucagon: Table 8
T3 construct: expressed in transfected cells; host or cells: HEK293

[2] = system: glucagon receptor, GLP-1 receptor or GIP receptor; assay: Agonist profile across receptors assigned from the cAMP reporter assay data; assay type: cell-based; conditions: assigned from the in vitro EC50 data of Tables 1-4
[3] = relative to the standard (Std.) EC50 of the same run
[4] = Glucagon Receptor EC50, cAMP luciferase reporter assay as in Example 16
[5] = Table 4, relative to the native hormone

T1 sequence (P43220 24-463, species assumed): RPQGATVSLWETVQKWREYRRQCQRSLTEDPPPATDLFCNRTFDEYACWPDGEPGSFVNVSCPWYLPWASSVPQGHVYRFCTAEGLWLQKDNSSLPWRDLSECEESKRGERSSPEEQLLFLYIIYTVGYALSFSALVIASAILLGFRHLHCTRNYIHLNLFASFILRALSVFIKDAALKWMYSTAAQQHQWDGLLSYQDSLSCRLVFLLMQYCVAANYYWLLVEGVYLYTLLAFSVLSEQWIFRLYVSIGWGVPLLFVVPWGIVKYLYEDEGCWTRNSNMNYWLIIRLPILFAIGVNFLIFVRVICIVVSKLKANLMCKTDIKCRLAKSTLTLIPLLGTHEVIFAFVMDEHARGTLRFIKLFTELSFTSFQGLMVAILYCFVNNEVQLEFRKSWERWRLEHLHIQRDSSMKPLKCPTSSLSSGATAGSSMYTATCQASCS
T3 sequence (P47871 26-477): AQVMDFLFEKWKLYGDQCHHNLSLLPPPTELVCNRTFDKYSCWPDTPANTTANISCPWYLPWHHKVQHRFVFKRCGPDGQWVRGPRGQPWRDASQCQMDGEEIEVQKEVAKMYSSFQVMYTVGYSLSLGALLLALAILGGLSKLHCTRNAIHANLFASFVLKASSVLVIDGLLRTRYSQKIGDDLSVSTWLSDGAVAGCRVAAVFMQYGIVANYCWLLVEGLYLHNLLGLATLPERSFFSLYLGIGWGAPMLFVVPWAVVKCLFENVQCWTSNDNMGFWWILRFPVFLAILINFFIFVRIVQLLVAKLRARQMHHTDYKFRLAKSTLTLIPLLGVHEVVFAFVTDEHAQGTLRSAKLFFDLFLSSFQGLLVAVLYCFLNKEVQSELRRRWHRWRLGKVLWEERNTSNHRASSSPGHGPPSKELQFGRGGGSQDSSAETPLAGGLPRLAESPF

| Molecule | % activity at the GLP-1 receptor (GLP-1 receptor; relative to the native hormone) | GLP-1 Receptor relative activity (GLP-1 receptor; [3]) | body weight [1] | % activity at the GIP receptor (GIP receptor; relative to the native hormone) | GIP Receptor relative activity (GIP receptor; [3]) | EC50 (glucagon receptor; [4]) | % activity at the glucagon receptor (glucagon receptor; relative to the native hormone) | Glucagon Receptor relative activity (glucagon receptor; [3]) | receptor activity profile (glucagon / GLP-1 / GIP agonism) [2] | EC50 (GIP receptor; GIP Receptor EC50, cAMP luciferase reporter assay as in Example 16) | GLP-1 Receptor relative activity (GLP-1 receptor; [5]) | % Relative activity at the Receptor for GLP-1 (GLP-1 receptor) | total change in body weight (weight loss, decrease) [1] | GIP Receptor relative activity (GIP receptor; [5]) | % Relative activity at the Receptor for GIP (GIP receptor) | EC50 (glucagon receptor; Glucagon Receptor EC50, nM, Table 4) | Glucagon Receptor relative activity (glucagon receptor; [5]) | % Relative activity at the Receptor for Glucagon (glucagon receptor) | EC50 (GIP receptor; GIP Receptor EC50, nM, Table 4) | reduction of body weight ([1]; Example 22, subcutaneous QW, 70 or 210 nmol/kg/week) |
| --- | --- | --- | --- | --- | --- | --- | --- | --- | --- | --- | --- | --- | --- | --- | --- | --- | --- | --- | --- | --- |
| CCCCCCCCCCCCCC(=O)NCCCC[C@H](NC(=O)[C@H](CO)NC(=O)[C@@H]1CCCN1C(=O)[C@@H]1CCCN1C(=O)[C@@H]1CCCN1C(=O)[C@H](C)NC(=O)CNC(=O)[C@H](CO)NC(=O)[C@H](CO)NC(=O)[C@@H]1CCCN1C(=O)CNC(=O)CNC(=O)[C@H](C)NC(=O)[C@H](CC(C)C)NC(=O)[C@H](CC(C)C)NC(=O)[C@H](Cc1c[nH]c2ccccc12)NC(=O)[C@H](CC(N)=O)NC(=O)[C@@H](NC(=O)[C@H](Cc1ccccc1)NC(=O)[C@H](CCC(=O)O)NC(=O)C(C)(C)NC(=O)[C@H](C)NC(=O)[C@H](C)NC(=O)[C@H](CCC(N)=O)NC(=O)[C@H](CCCCN)NC(=O)[C@H](CC(=O)O)NC(=O)[C@H](CC(C)C)NC(=O)[C@H](Cc1ccc(O)cc1)NC(=O)[C@@H](NC(=O)[C@H](CO)NC(=O)[C@H](Cc1ccc(O)cc1)NC(=O)[C@H](CC(=O)O)NC(=O)[C@H](CO)NC(=O)[C@@H](NC(=O)[C@H](Cc1ccccc1)NC(=O)[C@@H](NC(=O)CNC(=O)[C@H](CCC(N)=O)NC(=O)C(C)(C)NC(=O)[C@@H](N)Cc1ccc(O)cc1)[C@@H](C)O)[C@@H](C)O)[C@@H](C)CC)C(C)C)C(N)=O [mt-277] (H-Y[Aib]QGTFTSDYSIYLDKQAA[Aib]EFVNWLLAGGPSSGAPPPSK(Myristoyl)-NH2; N-terminus assumed) | 224% | 224.42% | caused significant weight loss in the mice | 446% | 455.77% | 0.0215 nM | 235% | 235.35% | exhibited activity at the GIP, GLP-1, and glucagon receptors |  |  |  |  |  |  |  |  |  |  |  |
| CCCCCCCCCCCCCCCC(=O)NCCCC[C@H](NC(=O)[C@H](CO)NC(=O)[C@@H]1CCCN1C(=O)[C@@H]1CCCN1C(=O)[C@@H]1CCCN1C(=O)[C@H](C)NC(=O)CNC(=O)[C@H](CO)NC(=O)[C@H](CO)NC(=O)[C@@H]1CCCN1C(=O)CNC(=O)CNC(=O)[C@H](C)NC(=O)[C@H](CC(C)C)NC(=O)[C@H](CC(C)C)NC(=O)[C@H](Cc1c[nH]c2ccccc12)NC(=O)[C@H](CC(N)=O)NC(=O)[C@@H](NC(=O)[C@H](Cc1ccccc1)NC(=O)[C@H](CCC(=O)O)NC(=O)C(C)(C)NC(=O)[C@H](C)NC(=O)[C@H](C)NC(=O)[C@H](CCC(N)=O)NC(=O)[C@H](CCCCN)NC(=O)[C@H](CC(=O)O)NC(=O)[C@H](CC(C)C)NC(=O)[C@H](Cc1ccc(O)cc1)NC(=O)[C@@H](NC(=O)[C@H](CO)NC(=O)[C@H](Cc1ccc(O)cc1)NC(=O)[C@H](CC(=O)O)NC(=O)[C@H](CO)NC(=O)[C@@H](NC(=O)[C@H](Cc1ccccc1)NC(=O)[C@@H](NC(=O)CNC(=O)[C@H](CCC(N)=O)NC(=O)C(C)(C)NC(=O)[C@@H](N)Cc1ccc(O)cc1)[C@@H](C)O)[C@@H](C)O)[C@@H](C)CC)C(C)C)C(N)=O [mt-278] (H-Y[Aib]QGTFTSDYSIYLDKQAA[Aib]EFVNWLLAGGPSSGAPPPSK(Palmitoyl)-NH2; N-terminus assumed) | 460% | 459.52% | caused significant weight loss in the mice | 846% | 846.43% | 0.0086 nM | 588% | 588.37% | exhibited activity at the GIP, GLP-1, and glucagon receptors | 0.0028 nM |  |  |  |  |  |  |  |  |  |  |
| CCCCCCCCCCCCCCCC(=O)N[C@@H](CCC(=O)N[C@@H](CCC(=O)NCCCC[C@H](NC(=O)[C@H](CO)NC(=O)[C@@H]1CCCN1C(=O)[C@@H]1CCCN1C(=O)[C@@H]1CCCN1C(=O)[C@H](C)NC(=O)CNC(=O)[C@H](CO)NC(=O)[C@H](CO)NC(=O)[C@@H]1CCCN1C(=O)CNC(=O)CNC(=O)[C@H](C)NC(=O)[C@H](CC(C)C)NC(=O)[C@H](CC(C)C)NC(=O)[C@H](Cc1c[nH]c2ccccc12)NC(=O)[C@H](CC(N)=O)NC(=O)[C@@H](NC(=O)[C@H](Cc1ccccc1)NC(=O)[C@H](CCC(=O)O)NC(=O)C(C)(C)NC(=O)[C@H](C)NC(=O)[C@H](C)NC(=O)[C@H](CCC(N)=O)NC(=O)[C@H](CCCCN)NC(=O)[C@H](CC(=O)O)NC(=O)[C@H](CC(C)C)NC(=O)[C@H](Cc1ccc(O)cc1)NC(=O)[C@@H](NC(=O)[C@H](CO)NC(=O)[C@H](Cc1ccc(O)cc1)NC(=O)[C@H](CC(=O)O)NC(=O)[C@H](CO)NC(=O)[C@@H](NC(=O)[C@H](Cc1ccccc1)NC(=O)[C@@H](NC(=O)CNC(=O)[C@H](CCC(N)=O)NC(=O)C(C)(C)NC(=O)[C@@H](N)Cc1ccc(O)cc1)[C@@H](C)O)[C@@H](C)O)[C@@H](C)CC)C(C)C)C(N)=O)C(=O)O)C(=O)O [mt-368] (H-Y[Aib]QGTFTSDYSIYLDKQAA[Aib]EFVNWLLAGGPSSGAPPPSK([γGlu-γGlu-Palmitoyl])-NH2; N-terminus assumed) |  |  |  |  |  |  |  |  |  |  | 418.93% | 418.93% | ~22% | 296.07% | 296.07% | 0.0069 nM | 491.82% | 491.82% |  |  |
| CCCCCCCCCCCCCCCC(=O)N[C@@H](CCC(=O)N[C@@H](CCC(=O)NCCCC[C@H](NC(=O)[C@H](CC(=O)O)NC(=O)[C@H](CO)NC(=O)[C@@H](NC(=O)[C@H](Cc1ccccc1)NC(=O)[C@@H](NC(=O)CNC(=O)[C@H](CCC(=O)O)NC(=O)C(C)(C)NC(=O)[C@@H](N)Cc1ccc(O)cc1)[C@@H](C)O)[C@@H](C)O)C(=O)N[C@@H](CO)C(=O)N[C@H](C(=O)N[C@@H](Cc1ccc(O)cc1)C(=O)N[C@@H](CC(C)C)C(=O)N[C@@H](CC(=O)O)C(=O)N[C@@H](CCCCN)C(=O)N[C@@H](CCC(N)=O)C(=O)N[C@@H](C)C(=O)N[C@@H](C)C(=O)NC(C)(C)C(=O)N[C@@H](CCC(=O)O)C(=O)N[C@@H](Cc1ccccc1)C(=O)N[C@H](C(=O)N[C@@H](CC(N)=O)C(=O)N[C@@H](Cc1c[nH]c2ccccc12)C(=O)N[C@@H](CC(C)C)C(=O)N[C@@H](CC(C)C)C(=O)N[C@@H](C)C(=O)NCC(=O)NCC(=O)N1CCC[C@H]1C(=O)N[C@@H](CO)C(=O)N[C@@H](CO)C(=O)NCC(=O)N[C@@H](C)C(=O)N1CCC[C@H]1C(=O)N1CCC[C@H]1C(=O)N1CCC[C@H]1C(=O)N[C@@H](CO)C(=O)N[C@@H](CCCCN)C(N)=O)C(C)C)[C@@H](C)CC)C(=O)O)C(=O)O [mt-369] (H-Y[Aib]EGTFTSDK([γGlu-γGlu-Palmitoyl])SIYLDKQAA[Aib]EFVNWLLAGGPSSGAPPPSK-NH2; N-terminus assumed) |  |  |  |  |  |  |  |  |  |  | 385.05% | 385.05% | ~25% | 204.26% | 204.26% |  | 1.54% | 1.54% | 0.0014 nM |  |
| mt-170: lactam-containing GLP-1/GIP/glucagon triagonist peptide, C-terminal amide (Y[Aib]QGTFTSDYSIYLDEQAAKEFVNWLLAGGPSSGAPPPSC(PEG 40 kDa)-NH2; lactam 16-20) |  |  |  |  |  |  |  |  | exemplary GLP-1/GIP/glucagon triagonist peptides |  |  |  |  |  |  |  |  |  |  | a little more effective at reducing body weight in the mice as Chimera 2 AIB2, but not as effective as Chimera 2 AIB2 lactam |
